In ChEMBL document CHEMBL3994622, “Design and synthesis of new RAF kinase-inhibiting antiproliferative quinoline derivatives. Part 2: Diarylurea derivatives” (Eur J Med Chem, 2017):

Columns and labels:
Type in all cases: functional
MCF7 = experiment: Growth inhibition of human MCF7 cells assessed as cell growth at 1 uM incubated for 48 hrs by sulforhodamine B assay relative to control; conditions: MCF7, 48 h, read-out: Activity
OVCAR-4 [1] = experiment: Growth inhibition of human OVCAR4 cells assessed as cell growth at 0.01 uM incubated for 48 hrs by sulforhodamine B assay relative to control; conditions: OVCAR-4, 48 h, read-out: Activity
SK-OV-3 = experiment: Growth inhibition of human SKOV3 cells assessed as cell growth at 0.01 uM incubated for 48 hrs by sulforhodamine B assay relative to control; conditions: SK-OV-3, 48 h, read-out: Activity
SN12C = experiment: Growth inhibition of human SN12C cells assessed as cell growth at 1 uM incubated for 48 hrs by sulforhodamine B assay relative to control; conditions: read-out: Activity
CCRF-CEM = experiment: Growth inhibition of human CCRF-CEM cells assessed as cell growth at 0.01 uM incubated for 48 hrs by sulforhodamine B assay relative to control; conditions: read-out: Activity
SR [2] = experiment: Growth inhibition of human SR cells assessed as cell growth at 10 uM incubated for 48 hrs by sulforhodamine B assay relative to control; conditions: read-out: Activity
SK-MEL-5 [3] = experiment: Growth inhibition of human SK-MEL-5 cells assessed as cell growth at 0.01 uM incubated for 48 hrs by sulforhodamine B assay relative to control; conditions: SK-MEL-5, 48 h, read-out: Activity
TK-10 = experiment: Growth inhibition of human TK10 cells assessed as cell growth at 0.01 uM incubated for 48 hrs by sulforhodamine B assay relative to control; conditions: TK-10, 48 h, read-out: Activity
SF-539 [4] = experiment: Growth inhibition of human SF539 cells assessed as cell growth at 100 uM incubated for 48 hrs by sulforhodamine B assay relative to control; conditions: SF-539, 48 h, read-out: Activity
PC-3 [5] = experiment: Growth inhibition of human PC3 cells assessed as cell growth at 0.1 uM incubated for 48 hrs by sulforhodamine B assay relative to control; conditions: PC-3, 48 h, read-out: Activity
UACC-62 = experiment: Growth inhibition of human UACC62 cells assessed as cell growth at 1 uM incubated for 48 hrs by sulforhodamine B assay relative to control; conditions: UACC-62, 48 h, read-out: Activity
NCI-H522 = experiment: Growth inhibition of human NCI-H522 cells assessed as cell growth at 0.01 uM incubated for 48 hrs by sulforhodamine B assay relative to control; conditions: NCI-H522, 48 h, read-out: Activity
IGROV-1 = experiment: Growth inhibition of human IGROV1 cells assessed as cell growth at 0.1 uM incubated for 48 hrs by sulforhodamine B assay relative to control; conditions: IGROV-1, 48 h, read-out: Activity
UO-31 [6] = experiment: Growth inhibition of human UO31 cells assessed as cell growth at 0.01 uM incubated for 48 hrs by sulforhodamine B assay relative to control; conditions: UO-31, 48 h, read-out: Activity
RXF 393 [7] = experiment: Growth inhibition of human RXF393 cells assessed as cell growth at 0.01 uM incubated for 48 hrs by sulforhodamine B assay relative to control; conditions: RXF 393, 48 h, read-out: Activity
MDA-MB-435 = experiment: Growth inhibition of human MDA-MB-435 cells assessed as cell growth at 3 uM incubated for 48 hrs by sulforhodamine B assay relative to control; conditions: MDA-MB-435, 48 h, read-out: Activity
OVCAR-4 [8] = experiment: Growth inhibition of human OVCAR4 cells assessed as cell growth at 0.003 uM incubated for 48 hrs by sulforhodamine B assay relative to control; conditions: OVCAR-4, 48 h, read-out: Activity
SF-539 [9] = experiment: Growth inhibition of human SF539 cells assessed as cell growth at 30 uM incubated for 48 hrs by sulforhodamine B assay relative to control; conditions: SF-539, 48 h, read-out: Activity
SR [10] = experiment: Growth inhibition of human SR cells assessed as cell growth at 3 uM incubated for 48 hrs by sulforhodamine B assay relative to control; conditions: read-out: Activity
NCI-H460 = experiment: Growth inhibition of human NCI-H460 cells assessed as cell growth at 3 uM incubated for 48 hrs by sulforhodamine B assay relative to control; conditions: NCI-H460, 48 h, read-out: Activity
PC-3 [11] = experiment: Growth inhibition of human PC3 cells assessed as cell growth at 0.03 uM incubated for 48 hrs by sulforhodamine B assay relative to control; conditions: PC-3, 48 h, read-out: Activity
ACHN = experiment: Growth inhibition of human ACHN cells assessed as cell growth at 0.3 uM incubated for 48 hrs by sulforhodamine B assay relative to control; conditions: read-out: Activity
M14 = experiment: Growth inhibition of human M14 cells assessed as cell growth at 0.03 uM incubated for 48 hrs by sulforhodamine B assay relative to control; conditions: M14, 48 h, read-out: Activity
SW-620 = experiment: Growth inhibition of human SW620 cells assessed as cell growth at 3 uM incubated for 48 hrs by sulforhodamine B assay relative to control; conditions: SW-620, 48 h, read-out: Activity
Malme-3M = experiment: Growth inhibition of human MALME-3M cells assessed as cell growth at 0.3 uM incubated for 48 hrs by sulforhodamine B assay relative to control; conditions: read-out: Activity
HCC 2998 = experiment: Growth inhibition of human HCC2998 cells assessed as cell growth at 30 uM incubated for 48 hrs by sulforhodamine B assay relative to control; conditions: HCC 2998, 48 h, read-out: Activity
OVCAR-3 = experiment: Growth inhibition of human OVCAR3 cells assessed as cell growth at 30 uM incubated for 48 hrs by sulforhodamine B assay relative to control; conditions: OVCAR-3, 48 h, read-out: Activity
SF-539 [12] = experiment: Growth inhibition of human SF539 cells assessed as cell growth at 0.3 uM incubated for 48 hrs by sulforhodamine B assay relative to control; conditions: SF-539, 48 h, read-out: Activity
SNB-75 = experiment: Growth inhibition of human SNB75 cells assessed as cell growth at 30 uM incubated for 48 hrs by sulforhodamine B assay relative to control; conditions: SNB-75, 48 h, read-out: Activity
UO-31 [13] = experiment: Growth inhibition of human UO31 cells assessed as cell growth at 0.3 uM incubated for 48 hrs by sulforhodamine B assay relative to control; conditions: UO-31, 48 h, read-out: Activity
HT-29 = experiment: Growth inhibition of human HT-29 cells assessed as cell growth at 0.3 uM incubated for 48 hrs by sulforhodamine B assay relative to control; conditions: HT-29, 48 h, read-out: Activity
MOLT-4 = experiment: Growth inhibition of human MOLT4 cells assessed as cell growth at 0.3 uM incubated for 48 hrs by sulforhodamine B assay relative to control; conditions: MOLT-4, 48 h, read-out: Activity
HL-60(TB) = experiment: Growth inhibition of human HL-60(TB) cells assessed as cell growth at 0.03 uM incubated for 48 hrs by sulforhodamine B assay relative to control; conditions: HL-60, 48 h, read-out: Activity
SK-MEL-5 [14] = experiment: Growth inhibition of human SK-MEL-5 cells assessed as cell growth at 30 uM incubated for 48 hrs by sulforhodamine B assay relative to control; conditions: SK-MEL-5, 48 h, read-out: Activity
RXF 393 [15] = experiment: Growth inhibition of human RXF393 cells assessed as cell growth at 30 uM incubated for 48 hrs by sulforhodamine B assay relative to control; conditions: RXF 393, 48 h, read-out: Activity

COc1cc2cc(Oc3ccc(NC(=O)Nc4ccc(Cl)c(Cl)c4)cc3)c(C)nc2cc1OC
growth at 1 µM (MCF7): 86%
growth at 0.01 µM (OVCAR-4 [1]): 95%
growth at 0.01 µM (SK-OV-3): 103%
growth at 1 µM (SN12C): 85%
growth at 0.01 µM (CCRF-CEM): 102%
growth at 10 µM (SR [2]): 1%
growth at 0.01 µM (SK-MEL-5 [3]): 103%
growth at 0.01 µM (TK-10): 106%
growth at 100 µM (SF-539 [4]): -54%
growth at 0.1 µM (PC-3 [5]): 95%
growth at 1 µM (UACC-62): 77%
growth at 0.01 µM (NCI-H522): 99%
growth at 0.1 µM (IGROV-1): 112%
growth at 0.01 µM (UO-31 [6]): 96%
growth at 0.01 µM (RXF 393 [7]): 106%

COc1cc2cc(Oc3ccc(NC(=O)Nc4ccc(Cl)c(C(F)(F)F)c4)cc3)c(C)nc2cc1OC
growth at 3 µM (MDA-MB-435): 9%
growth at 0.003 µM (OVCAR-4 [8]): 93%
growth at 30 µM (SF-539 [9]): -49%
growth at 3 µM (SR [10]): -9%
growth at 3 µM (NCI-H460): 3%
growth at 0.03 µM (PC-3 [11]): 94%
growth at 0.3 µM (ACHN): 95%
growth at 0.03 µM (M14): 82%
growth at 3 µM (SW-620): 15%
growth at 0.3 µM (Malme-3M): 110%
growth at 30 µM (HCC 2998): -98%
growth at 30 µM (OVCAR-3): -87%
growth at 0.3 µM (SF-539 [12]): 107%
growth at 30 µM (SNB-75): -44%
growth at 0.3 µM (UO-31 [13]): 105%
growth at 0.3 µM (HT-29): 105%
growth at 0.3 µM (MOLT-4): 98%
growth at 0.03 µM (HL-60(TB)): 97%
growth at 30 µM (SK-MEL-5 [14]): -97%
growth at 30 µM (RXF 393 [15]): -80%
